Experimental data published in patent US20210395239A1 (Hoffmann-La Roche Inc., priority 2018, published 2021).
pIC50: −log10 of the molar value.

Assays:
CYP3A4 = target: T1, CYP3A4 (Homo sapiens, UniProt P08684); experiment: CYP inhibition assay in human liver microsome, CYP3A4; format: in vitro ADME; details: substrate midazolam 5 μM, third value of 2C9/2D6/3A4; for inhibition at 5 min, 10 µM: human, human liver microsomes, probe midazolam 5 μM
T1 construct: tissue BD-Gentest 452117; host or cells: human liver microsomes
How it was run: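 Pooled human liver microsomes with a substrate for each CYP were incubated with compound at 37 °C after NADPH addition, for 5 min (CYP2D6: 10 min), then quenched with acetonitrile containing labelled metabolite standards. Metabolite/internal-standard peak area ratios were measured by RapidFire MS/MS. % inhibition was scaled between DMSO and standard-inhibitor controls.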

hTLR9 = target: T2, hTLR9 (Homo sapiens, UniProt Q9NR96); experiment: HEK293-Blue-hTLR-9 cells assay (SEAP reporter, ODN2006 stimulation); format: cell-based; set-up: host or cells: HEK293 (HEK-Blue hTLR9); details: HEK293-Blue-hTLR9 cells, ODN2006, 20 hrs; read-out: HEK/hTLR9 IC50
T2 sequence (Q9NR96 26-1032): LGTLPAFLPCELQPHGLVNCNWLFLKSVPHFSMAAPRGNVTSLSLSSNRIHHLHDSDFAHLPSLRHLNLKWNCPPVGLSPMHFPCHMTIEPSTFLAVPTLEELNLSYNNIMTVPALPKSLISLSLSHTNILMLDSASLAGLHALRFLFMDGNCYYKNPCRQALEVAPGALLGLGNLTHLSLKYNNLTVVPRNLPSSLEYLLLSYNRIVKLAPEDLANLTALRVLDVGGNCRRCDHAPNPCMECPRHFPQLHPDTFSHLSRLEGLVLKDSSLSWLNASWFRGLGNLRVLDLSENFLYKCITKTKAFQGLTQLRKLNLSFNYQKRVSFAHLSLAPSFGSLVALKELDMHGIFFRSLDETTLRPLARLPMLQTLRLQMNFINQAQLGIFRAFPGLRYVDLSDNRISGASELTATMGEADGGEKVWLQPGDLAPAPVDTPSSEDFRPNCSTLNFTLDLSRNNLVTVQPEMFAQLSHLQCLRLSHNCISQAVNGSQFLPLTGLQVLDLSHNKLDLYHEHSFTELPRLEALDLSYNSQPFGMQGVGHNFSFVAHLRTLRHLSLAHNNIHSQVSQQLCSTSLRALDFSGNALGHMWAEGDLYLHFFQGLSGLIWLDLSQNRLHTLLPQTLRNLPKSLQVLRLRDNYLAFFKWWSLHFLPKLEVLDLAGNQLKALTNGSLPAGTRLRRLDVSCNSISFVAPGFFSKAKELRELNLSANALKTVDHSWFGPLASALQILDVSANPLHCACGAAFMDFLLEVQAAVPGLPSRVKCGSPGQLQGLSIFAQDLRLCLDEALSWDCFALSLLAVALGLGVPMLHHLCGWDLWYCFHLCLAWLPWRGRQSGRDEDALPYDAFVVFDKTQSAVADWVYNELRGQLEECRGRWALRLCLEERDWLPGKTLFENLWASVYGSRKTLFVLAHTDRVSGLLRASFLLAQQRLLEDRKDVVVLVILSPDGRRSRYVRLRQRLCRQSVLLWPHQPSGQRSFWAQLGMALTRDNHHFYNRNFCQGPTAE
How it was run: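 Antagonism read as lowered SEAP reporter absorbance (620–655 nm, QUANTI-Blue, 2 h, 37 °C) in supernatants. Before that, ODN2006-stimulated HEK293-Blue cells stably expressing human TLR9 were exposed to compound dilutions at 1% final DMSO for 20 h at 37 °C.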

T1 sequence (P08684 whole entry): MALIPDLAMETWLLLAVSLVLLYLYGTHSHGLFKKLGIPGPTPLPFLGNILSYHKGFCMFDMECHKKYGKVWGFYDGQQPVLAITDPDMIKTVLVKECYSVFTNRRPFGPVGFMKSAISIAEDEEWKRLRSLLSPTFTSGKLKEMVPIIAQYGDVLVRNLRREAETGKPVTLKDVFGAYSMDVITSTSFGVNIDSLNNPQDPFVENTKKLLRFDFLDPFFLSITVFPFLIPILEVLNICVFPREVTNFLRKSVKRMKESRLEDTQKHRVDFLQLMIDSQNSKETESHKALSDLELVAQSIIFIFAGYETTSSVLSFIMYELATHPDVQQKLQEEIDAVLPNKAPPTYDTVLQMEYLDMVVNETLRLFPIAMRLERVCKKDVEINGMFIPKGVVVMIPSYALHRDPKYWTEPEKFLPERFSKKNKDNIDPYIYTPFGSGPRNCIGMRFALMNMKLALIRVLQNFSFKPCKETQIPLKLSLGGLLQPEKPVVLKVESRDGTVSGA

| SMILES | CYP (%) 3A4 inhibition (CYP3A4) [%] | pIC50 (hTLR9) | inhibition at 5 min, 10 µM (CYP3A4) [%] |
| --- | --- | --- | --- |
| CO[C@H]1CN(c2nccc(N3CCN(C[C@H]4CN(c5ccc(C#N)c6ncccc56)C[C@@H](C)O4)CC3)n2)CC1N (stereo in doubt) [Example 53, 5-[(2S,6R)-2-[[4-[2-[(3S,4S)-3-amino-4-methoxy-pyrrolidin-1-yl]pyrimidin-4-yl]piperazin-1-yl]methyl]-6-methyl-morpholin-4-yl]quinoline-8-carbonitrile] | 7.5 | 7.49 |  |
| C[C@@H]1CN(c2ccc(C#N)c3ncccc23)C[C@H](CN2CCN(c3cncc(N4CCNCC4)c3)CC2)O1 [Example 7, 5-[(2R,6S)-2-methyl-6-[[4-(5-piperazin-1-yl-3-pyridyl)piperazin-1-yl]methyl]morpholin-4-yl]quinoline-8-carbonitrile] |  | 7.29 | 15.5 |
| C[C@@H]1CN(c2ccc(C#N)c3ncccc23)C[C@H](CN2CCN(c3ccnc(N4CCN(C)CC4)n3)CC2)O1 [Example 22, 5-((2R,6S)-2-methyl-6-((4-(2-(4-methylpiperazin-1-yl)pyrimidin-4-yl)piperazin-1-yl)methyl)morpholino)quinoline-8-carbonitrile] |  | 7.35 | -16 |
| C[C@@H]1CN(c2ccc(C#N)c3ncccc23)C[C@H](CN2CCN(c3cc(N4CCNCC4)ccn3)CC2)O1 [Example 9, 5-[(2R,6S)-2-methyl-6-[[4-(4-piperazin-1-yl-2-pyridyl)piperazin-1-yl]methyl]morpholin-4-yl]quinoline-8-carbonitrile] |  | 7.49 | 7.5 |
| C[C@@H]1CN(c2ccc(C#N)c3ncccc23)C[C@H](CN2CCN(c3nccc(N4CCNCC4)n3)CC2)O1 [Example 14, 5-[(2R,6S)-2-methyl-6-[[4-(4-piperazin-1-ylpyrimidin-2-yl)piperazin-1-yl]methyl]morpholin-4-yl]quinoline-8-carbonitrile] |  | 7.49 | -2 |
| COC1CN(c2nccc(N3CCN(C[C@H]4CN(c5ccc(C#N)c6ncccc56)C[C@@H](C)O4)CC3)n2)C[C@H]1N (stereo in doubt) [Example 52, 5-[(2S,6R)-2-[[4-[2-[(3R,4R)-3-amino-4-methoxy-pyrrolidin-1-yl]pyrimidin-4-yl]piperazin-1-yl]methyl]-6-methyl-morpholin-4-yl]quinoline-8-carbonitrile] | 2 | 7.49 |  |
| C[C@@H]1CN(c2ccc(C#N)c3ncccc23)C[C@H](CN2CCN(c3ccc([C@@H]4CNCCO4)cc3)CC2)O1 [Example 19, 5-[(2R,6S)-2-methyl-6-[[4-[4-[(2R)-morpholin-2-yl]phenyl]piperazin-1-yl]methyl]morpholin-4-yl]quinoline-8-carbonitrile] |  | 7.04 | 12.5 |
| C[C@@H]1CN(c2ccc(C#N)n3ncc(F)c23)C[C@H](CN2CCN(c3ccc(N[C@H]4CNC[C@H]4F)nc3)CC2)O1 [Example 167, 3-fluoro-4-[(2S,6R)-2-[[4-[6-[[(3S,4R)-4-fluoropyrrolidin-3-yl]amino]-3-pyridyl]piperazin-1-yl]methyl]-6-methyl-morpholin-4-yl]pyrazolo[1,5-a]pyridine-7-carbonitrile] |  | 7.34 | 44 |
| C[C@@H]1CN(c2ccc(C#N)n3ncc(F)c23)C[C@H](CN2CCN(c3ccc(N4CC5(CN(C)C5)C4)nc3)CC2)O1 [Example 170, 3-fluoro-4-[(2R,6S)-2-methyl-6-[[4-[6-(6-methyl-2,6-diazaspiro[3.3]heptan-2-yl)-3-pyridyl]piperazin-1-yl]methyl]morpholin-4-yl]pyrazolo[1,5-a]pyridine-7-carbonitrile] |  | 7.15 | -7 |
| C[C@@H]1CN(c2ccc(C#N)n3ncc(F)c23)C[C@H](CN2CCN(c3ccc(N4C[C@H]5NCCO[C@@H]5C4)nc3)CC2)O1 [Example 168, 4-[(2S,6R)-2-[[4-[6-[(4aR,7aR)-3,4,4a,5,7,7a-hexahydro-2H-pyrrolo[3,4-b][1,4]oxazin-6-yl]-3-pyridyl]piperazin-1-yl]methyl]-6-methyl-morpholin-4-yl]-3-fluoro-pyrazolo[1,5-a]pyridine-7-carbonitrile] |  | 6.94 | 11 |
| C[C@@H]1CN(c2ccc(C#N)c3ncccc23)C[C@H](CN2CCN(c3ccc(N4CCNCC4)cn3)CC2)O1 [Example 8, 5-[(2R,6S)-2-methyl-6-[[4-(5-piperazin-1-yl-2-pyridyl)piperazin-1-yl]methyl]morpholin-4-yl]quinoline-8-carbonitrile] |  | 7.03 | -3.5 |
| C[C@@H]1CN(c2ccc(C#N)c3ncccc23)C[C@H](CN2CCC(C#N)(c3ccc(N4CCNCC4)cc3)CC2)O1 [Example 11, 5-[(2S,6R)-2-[[4-cyano-4-(4-piperazin-1-ylphenyl)-1-piperidyl]methyl]-6-methyl-morpholin-4-yl]quinoline-8-carbonitrile] |  | 7.04 | 11 |
| C[C@@H]1CN(c2ccc(C#N)c3ncccc23)C[C@H](CN2CCN(c3ccnc(N[C@H]4CNC[C@H]4F)n3)CC2)O1 [Example 24, 5-[(2S,6R)-2-[[4-[2-[[(3S,4R)-4-fluoropyrrolidin-3-yl]amino]pyrimidin-4-yl]piperazin-1-yl]methyl]-6-methyl-morpholin-4-yl]quinoline-8-carbonitrile] |  | 7.49 | 4 |
| C[C@@H]1CN(c2ccc(C#N)c3ncccc23)C[C@H](CN2CCN(c3cc(N4CCN(C)CC4)ncn3)CC2)O1 [Example 21, 5-[(2R,6S)-2-methyl-6-[[4-[6-(4-methylpiperazin-1-yl)pyrimidin-4-yl]piperazin-1-yl]methyl]morpholin-4-yl]quinoline-8-carbonitrile] |  | 6.66 | -1.5 |
| COC1CN(c2ccc(N3CCN(C[C@H]4CN(c5ccc(C#N)c6ncccc56)C[C@@H](C)O4)CC3)cn2)CC1N (stereo partly drawn) [Example 43, 5-[(2S,6R)-2-[[4-[6-(3-amino-4-methoxy-pyrrolidin-1-yl)-3-pyridyl]piperazin-1-yl]methyl]-6-methyl-morpholin-4-yl]quinoline-8-carbonitrile] |  | 6.92 | 16 |
| C[C@@H]1CN(c2ccc(C#N)c3ncccc23)C[C@H](CN2CCN(c3ccnc(N4CCNCC4)n3)CC2)O1 [Example 15, 5-[(2R,6S)-2-methyl-6-[[4-(2-piperazin-1-ylpyrimidin-4-yl)piperazin-1-yl]methyl]morpholin-4-yl]quinoline-8-carbonitrile] |  | 7.44 | 11.5 |
| C[C@@H]1CN(c2ccc(C#N)c3ncccc23)C[C@H](CN2CCN(c3ccnc(N4CCNCC(O)C4)n3)CC2)O1 (stereo partly drawn) [Example 25, 5-[(2S,6R)-2-[[4-[2-(6-hydroxy-1,4-diazepan-1-yl)pyrimidin-4-yl]piperazin-1-yl]methyl]-6-methyl-morpholin-4-yl]quinoline-8-carbonitrile] |  | 7.48 | -4 |
| COC1CNC[C@H]1Nc1cccc(N2CCN(C[C@H]3CN(c4ccc(C#N)c5ncccc45)C[C@@H](C)O3)CC2)n1 (stereo in doubt) [Example 39, 5-[(2S,6R)-2-[[4-[6-[[(3R,4R)-4-methoxypyrrolidin-3-yl]amino]-2-pyridyl]piperazin-1-yl]methyl]-6-methyl-morpholin-4-yl]quinoline-8-carbonitrile] |  | 6.98 | 23.5 |
